In patent US20210113523A1, “Compositions For Treating And/Or Preventing Photodynamic Therapy Side Effects” (AC BIOSCIENCE SA, priority 2018, published 2021):
pIC50: −log10 of the molar value. Where two headings read alike, the source gives them in different places.

Legend:
[1] = read-out: 2,2-diphenyl-1-picrylhydrazyl scavenging IC50; cited from earlier work
[2] = 10 mg/kg; cited from earlier work
[3] = read-out: NO scavenging IC50; cited from earlier work
mast cells = assay: Mast cell degranulation estimated by beta-hexosaminidase release (IgE/anti-IgE); format: cell-based; conditions: 1 hour after IgE stimulation
Protocol: Degranulation was induced by the addition of IgE followed by the addition of anti-IgE Beta-hexosaminidase was measured 1 hour after IgE stimulation. Reference molecule was cromoglycate.

human neutrophils = assay: ROS production of PMA-activated neutrophils (chemiluminescence); format: cell-based; conditions: activation by 100 ng/ml PMA; FIG. 1
Protocol: ROS production is measured using a chemiluminescence standard procedure: briefly, one hundred microliters of human neutrophils (4×10^6/mL) were primed with TNF-α at 37° C. for 25 minutes. 100 μL luminol (1 μM final concentration) and HRP (62.5 U/mL final concentration) in HBSS were added, and 150-μL aliquots were transferred to a prewarmed 96-well luminometer plate. Light emission was recorded by a Berthold MicroLumat Plus luminometer (Berthold Technologies, Hartfordshire, United Kingdom) (data output is in relative light units per second)

activated mast cells = assay: IL6 release from activated mast cells; format: cell-based; conditions: primed mast cells activated by anti IgE, 6 hours; FIG. 2
Protocol: Mast cells were obtained from CD34+ progenitors cultivated during 8 weeks in the presence of stem cell factor and IL3. Some mast cells (light grey with spots) were primed during 5 days by IL4 and IgE. Primed mast cells were activated by anti IgE and IL6 release is measured 6 hours following the activation. Masitinib (Masi) a c-kit receptor inhibitor is taken as positive control. Dark grey corresponds to the basal release of IL6 in the absence of mast cells activation. Maximum release of resting mast cells were obtained by the use of a calcium ionophore.

[4] = tested on: Chick Chorioallantoic Membrane (CAM) vessel network; assay: CAM vessel network following PDT irradiation; format: in vivo
Protocol: 5-ALA (20 mg/ml; pH=6.8) was topically applied on CAM 4 hours before PDT □ For Catechin samples, Catechin (at different concentrations: 1-30 μM) was topically applied on CAM 15 min before PDT-PDT: λ=405 nm irradiance=2.86 mW/cm2 light dose=1.2 J/cm2-10 μM Catechin has the most protective effect against PDT deleterious effect. 5-ALA: aminolevulinique acid.

[5] = 10−4 M, control without IgE 0.132
[6] = 10−5 M, control without IgE 0.135

Oc1cc(O)cc(/C=C/c2ccc(O)cc2O)c1 [Oxyresveratrol]
pIC50 [1]: 4.54
brain infarct volume [2]: reducing
caspase-3 activation [2]: reducing
cytochrome c release [2]: reducing
pIC50 [3]: 4.34

O=C1c2c(O)cc(O)cc2O[C@H](c2ccc(O)c(O)c2)[C@H]1O [DHQ, Dihydroquercetin]
beta-hexosaminidase release (mast cells; [5]): 0.28
beta-hexosaminidase release (mast cells; [6]): 0.52
reactive oxygen species (ROS) production by neutrophils (human neutrophils): inhibitory effect
IL6 release from activated mast cells (activated mast cells): inhibitor of IL6 release

(+)Catechin
Catechin concentration at which microvessel protection is evidenced (as low as) ([4]; presence of microvessels in the CAM vasculature network, FIG. 5A): 1 µM
Catechin concentration with the most protective effect against PDT deleterious effect ([4]; topically applied on CAM 15 min before PDT, tested 1-30 μM, 5-ALA 20 mg/ml): 10 µM

O=C(O)c1cc(=O)c2c(OCC(O)COc3cccc4oc(C(=O)O)cc(=O)c34)cccc2o1 [Reference molecule, cromoglycate, reference compound]
beta-hexosaminidase release (mast cells; [5]): 0.34
beta-hexosaminidase release (mast cells; [6]): 0.48
